Counter-ions that a name gives are not always drawn. Like-named read-outs stand apart in the source and are kept apart here.
Key:
[1] = molecular target: Chk-1 kinase (Homo sapiens (Human), UniProt O14757); test: Chk-1 Kinase Inhibiting Activity (33P-ATP filter assay, CHKtide substrate); format: biochemical; conditions: against Chk-1 kinase; read-out: IC50
Description: Chk-1 Kinase Inhibiting Activity
The compounds of the invention were tested for activity against Chk-1 kinase using the materials and protocols set out below.
Base Reaction buffer: 20 mM Hepes (pH 7.5), 10 mM MgCl2, 1 mM EGTA, 0.02% Brij35, 0.02 mg/ml BSA, 0.1 mM Na3VO4, 2 mM DTT, 1% DMSO
*Required cofactors are added individually to each kinase reaction
(i) Prepare indicated substrate in freshly prepared Base Reaction Buffer
(ii) Deliver any required cofactors to the substrate solution above
(iii) Deliver indicated kinase into the substrate solution and gently mix
(iv) Deliver compounds in DMSO into the kinase reaction mixture
(v) Deliver ^33P-ATP (specific activity 0.01 μCi/μl final) into the reaction mixture to initiate the reaction.
(vi) Incubate kinase reaction for 120 minutes at room temperature
(vii) Reactions are spotted onto P81 ion exchange paper (Whatman #3698-915)
(viii) Wash filters extensively in 0.1% phosphoric acid.
(ix) Dry filters and measure counts in scintillation counter
Recombinant full length construct, N-terminal GST tagged, purified from insect cells.
No special measures were taken to activate this kinase.
Final concentration in assay=0.5 nM
Peptide sequence: [[…]]
Final concentration in assay=20 μM
No additional cofactors are added to the reaction mixture
From the results obtained by following the above protocol, the IC50 values against Chk-1 kinase of each of the compounds of Examples 1-153 were determined and these are shown in Table 3.

[2] = tested on: MIA PaCa-2 cells; test: Gemcitabine Combination Cell Assay (Cell Titer Glo); format: cell-based; conditions: for 10xLS: approximate concentration of Chk1 inhibitor that results in a 10-fold reduction in the IC50 of gemcitabine alone; for 2xLS: approximate concentration of Chk1 inhibitor that results in a two-fold reduction in the IC50 of gemcitabine alone
Description: Gemcitabine Combination Cell Assay
Exponentially growing MIA PaCa-2 (ATCC CRL-1420) cells are treated with trypsin to remove cells from the plate surface. Approximately 10,000 cells/well are plated in 96 well plates in RPMI containing 10% fetal bovine serum, 1% sodium pyruvate and 1% L-GlutaMax. Cells are allowed to adhere to the plate surface overnight. Serial half-log dilutions of Chk1 inhibitor test compounds and gemcitabine are made with a final highest concentration of 3000 nM and 100 nM, respectively. Chk1 inhibitors and gemcitabine are combined so that each concentration of Chk1 inhibitor is added to each concentration of gemcitabine. Each drug is also tested as a single agent. Drugs are added to adherent cells (in duplicate) and incubated for 72 h. At 72 h the cells are treated with Promega Cell Titer Glo reagent for approximately 15 minutes. Luminescence (relative light units, RLU) is recorded using a BMG Polarstar Omega plate reader. The single agent concentration that results in a 50% reduction in total signal (IC50) is calculated using PRISM software and a four-parameter non-linear regression curve fit. For combination studies the RLUs are plotted using PRISM on an XY plot with the gemcitabine concentration on the X axis and RLU on the Y axis. The RLU for each concentration of Chk1 inhibitor is plotted as a function of gemcitabine concentration. The IC50 for gemcitabine alone and at each concentration of Chk1 is determined using a four-parameter non-linear regression curve fit. The approximate concentration of Chk1 inhibitor that results in a two and ten-fold reduction in the IC50 of gemcitabine alone is calculated as an indication of synergistic potency.
From the results obtained by following the above protocol, the IC50 values against MIAPaca-2 cells of the Chk1 inhibitor alone (Chk1 IC50), the approximate concentration of Chk1 inhibitor that results in a two-fold (2×LS) and a 10-fold (10×LS) reduction in the IC50 of gemcitabine alone of each of the compounds of Examples 1-154 are shown in Table 4.

[3] = Homo sapiens, Chk1 inhibitor alone, MIA PaCa-2 cells, 72 h, read-out: Chk1 IC50
[4] = Homo sapiens, MIA PaCa-2, 72 h, read-out: Chk1 IC50 (nM)
[5] = Chk1 inhibitor alone, MIA PaCa-2 cells, 72 h, read-out: Chk1 IC50

Chk-1 kinase, sequence (O14757 whole entry): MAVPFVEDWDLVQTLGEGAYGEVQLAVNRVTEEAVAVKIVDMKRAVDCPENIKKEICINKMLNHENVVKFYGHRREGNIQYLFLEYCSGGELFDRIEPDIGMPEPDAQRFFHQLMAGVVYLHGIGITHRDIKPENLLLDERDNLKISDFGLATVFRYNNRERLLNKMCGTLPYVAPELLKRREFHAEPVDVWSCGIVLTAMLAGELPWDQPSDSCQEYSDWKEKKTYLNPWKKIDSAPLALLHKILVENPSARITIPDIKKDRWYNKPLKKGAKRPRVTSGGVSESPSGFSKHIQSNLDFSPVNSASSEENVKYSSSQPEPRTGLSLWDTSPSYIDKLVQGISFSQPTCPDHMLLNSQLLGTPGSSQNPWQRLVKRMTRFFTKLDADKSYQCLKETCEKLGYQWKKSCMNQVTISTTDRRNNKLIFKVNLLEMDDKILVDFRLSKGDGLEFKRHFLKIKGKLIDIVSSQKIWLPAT

Row | IC50 [1] [nM] | IC50 [2, 3] [nM] | SMILES | 10xLS ([2]; MIA PaCa-2 cells, 72 h) [nM] | 2xLS ([2]; MIA PaCa-2 cells, 72 h) [nM] | IC50 [2, 4] [nM] | IC50 [2, 5] [nM]
1 | 0.55 | > 3000 | COc1cc(OCC2CCOCC2)ccc1-c1cc(Nc2cnc(C#N)cn2)n[nH]1 [Example 75, 5-[[5-[2-methoxy-4-(tetrahydropyran-4-ylmethoxy)phenyl]-1H-pyrazol-3-yl]amino]pyrazine-2-carbonitrile] | >3000 | >3000 | – | –
2 | 0.022 | 1200 | CCN1CCO[C@H](c2ccc(-c3cc(Nc4cnc(C#N)cn4)n[nH]3)c(OC)c2)C1 [Example 118, 5-[[5-[2-methoxy-4-[(2R)-4-ethylmorpholin-2-yl]phenyl]-1H-pyrazol-3-yl]amino]pyrazine-2-carbonitrile] | 300 | 3 | – | –
3 | 2 | – | N#Cc1cnc(Nc2cc(-c3ccc(CNCc4ccccc4)cc3)[nH]n2)cn1 [Example 5, 5-{5-[4-(benzylamino-methyl)-phenyl]-1H-pyrazol-3-ylamino}-pyrazine-2-carbonitrile] | – | – | – | –
4 | 0.095 | 281 | COc1cc(OCC2CCNCC2)ccc1-c1cc(Nc2cnc(C#N)cn2)n[nH]1 [Example 36, 5-[[5-[2-methoxy-4-(4-piperidylmethoxy)phenyl]-1H-pyrazol-3-yl]amino]pyrazine-2-carbonitrile] | 100 | 3 | – | –
5 | 0.052 | 600 | COc1cc(CN(C)C2CCOCC2)ccc1-c1cc(Nc2cnc(C#N)cn2)n[nH]1 [Example 63, 5-[[5-[2-methoxy-4-[[methyl(tetra hydropyran-4-yl)amino]methyl]phenyl]-1H-pyrazol-3-yl]amino]pyrazine-2-carbonitrile] | 100 | <3 | – | –
6 | – | 428 | CCN1CCC[C@H]1Cc1ccc(-c2cc(Nc3cnc(C#N)cn3)n[nH]2)c(OC)c1 [Example 152, 5-[[5-[4-[[(2S)-1-ethylpyrrolidin-2-yl]methyl]-2-methoxy-phenyl]-1H-pyrazol-3-yl]amino]pyrazine-2-carbonitrile] | 100 | 3 | – | –
7 | – | 101 | COc1cc(C[C@H]2CCCN2C(C)C)ccc1-c1cc(Nc2cnc(C#N)cn2)n[nH]1 [Example 151, 5-[[5-[4-[[(2R)-1-isopropylpyrrolidin-2-yl]methyl]-2-methoxy-phenyl]-1H-pyrazol-3-yl]amino]pyrazine-2-carbonitrile] | <30 | <3 | – | –
8 | – | 1110 | COc1cc(C2CCCCN2C)ccc1-c1cc(Nc2cnc(C#N)cn2)n[nH]1 (stereo not shown) [Example 41, 5-[[5-[2-methoxy-4-(1-methyl-2-piperidyl)phenyl]-1H-pyrazol-3-yl]amino]pyrazine-2-carbonitrile] | 300 | 30 | – | –
9 | – | 687 | COc1cc([C@H]2CN(C)CCO2)ccc1-c1cc(Nc2cnc(C#N)cn2)n[nH]1 [Example 119, 5-[[5-[2-methoxy-4-[(2S)-4-methylmorpholin-2-yl]phenyl]-1H-pyrazol-3-yl]amino]pyrazine-2-carbonitrile] | <300 | 10 | – | –
10 | – | 397 | CCN1CCO[C@@H](c2ccc(-c3cc(Nc4cnc(C#N)cn4)n[nH]3)c(OC)c2)C1 [Example 120, 5-[[5-[2-methoxy-4-[(2S)-4-ethylmorpholin-2-yl]phenyl]-1H-pyrazol-3-yl]amino]pyrazine-2-carbonitrile] | 100 | 3 | – | –
11 | – | 259 | COc1cc([C@H]2CN(C(C)C)CCO2)ccc1-c1cc(Nc2cnc(C#N)cn2)n[nH]1 [Example 150, 5-[[5-[4-[(2S)-4-isopropylmorpholin-2-yl]-2-methoxy-phenyl]-1H-pyrazol-3-yl]amino]pyrazine-2-carbonitrile] | 100 | 3 | – | –
12 | – | > 3000 | COc1cc(CNC(=O)C2CC2)ccc1-c1cc(Nc2cnc(C#N)cn2)n[nH]1 [Example 13, N-[[4-[3-[(5-cyanopyrazin-2-yl)amino]-1H-pyrazol-5-yl]-3-methoxy-phenyl]methyl]cyclopropanecarboxamide] | 300 | ~20 | – | –
13 | – | 395 | COc1cc(C[C@@H]2CCCN2C(C)C)ccc1-c1cc(Nc2cnc(C#N)cn2)n[nH]1 [Example 154, 5-[[5-[4-[[(2S)-1-isopropylpyrrolidin-2-yl]methyl]-2-methoxy-phenyl]-1H-pyrazol-3-yl]amino]pyrazine-2-carbonitrile] | 100 | 3 | – | –
14 | – | – | CCN1CCC[C@@H]1Cc1ccc(-c2cc(Nc3cnc(C#N)cn3)n[nH]2)c(OC)c1 [Example 149, 5-[[5-[4-[[(2R)-1-ethylpyrrolidin-2-yl]methyl]-2-methoxy-phenyl]-1H-pyrazol-3-yl]amino]pyrazine-2-carbonitrile hydrochloride] | 30 | <3 | 188 | –
15 | > 100 | – | COc1cc(C2CCNCC2)ccc1-c1cc(Nc2cnc(C(=O)O)cn2)n[nH]1 [Example 45, 5-[[5-[2-methoxy-4-(4-piperidyl)phenyl]-1H-pyrazol-3-yl]amino]pyrazine-2-carboxylic acid] | – | – | – | –
16 | – | 2300 | COc1cc(OCc2cocn2)ccc1-c1cc(Nc2cnc(C#N)cn2)n[nH]1 [Example 105, 5-[[5-[2-methoxy-4-(oxazol-4-ylmethoxy)phenyl]-1H-pyrazol-3-yl]amino]pyrazine-2-carbonitrile] | 1000 | 30 | – | –

Row | SMILES | IC50 [1] [nM] | IC50 [2, 3] [nM] | 10xLS ([2]; MIA PaCa-2 cells, 72 h) [nM] | 2xLS ([2]; MIA PaCa-2 cells, 72 h) [nM] | IC50 [2, 4] [nM] | IC50 [2, 5] [nM]
17 | COc1cc(C2CCN(C)CC2)ccc1-c1cc(Nc2cnc(C#N)cn2)n[nH]1 [Example 11, 5-{5-[2-Methoxy-4-(1-methyl-piperidin-4-yl)-phenyl]-1H-pyrazol-3-ylamino}-pyrazine-2-carbonitrile hydrochloride] | 0.048 | – | <100 | 3 | 214 | –
18 | CCN1CCC(OCc2ccc(-c3cc(Nc4cnc(C#N)cn4)n[nH]3)c(OC)c2)CC1 [Example 114, 5-[[5-[4-[(1-ethyl-4-piperidyl)oxymethyl]-2-methoxy-phenyl]-1H-pyrazol-3-yl]amino]pyrazine-2-carbonitrile] | 0.2 | – | <300 | 3 | – | 469
19 | COc1cc(COC2CCN(C(C)C)CC2)ccc1-c1cc(Nc2cnc(C#N)cn2)n[nH]1 [Example 115, 5-[[5-[4-[(1-isopropyl-4-piperidyl)oxymethyl]-2-methoxy-phenyl]-1H-pyrazol-3-yl]amino]pyrazine-2-carbonitrile] | 0.24 | – | <300 | 3 | – | 515
20 | COc1cc(CN2CC[C@H](OC)C2)ccc1-c1cc(Nc2cnc(C#N)cn2)n[nH]1 [Example 124, 5-[[5-[2-methoxy-4-[[(3S)-3-methoxypyrrolidin-1-yl]methyl]phenyl]-1H-pyrazol-3-yl]amino]pyrazine-2-carbonitrile] | – | 322 | <300 | 3 | – | –
21 | COc1cc(CCNCc2ccccc2)ccc1-c1cc(Nc2cnc(C#N)cn2)n[nH]1 [Example 4, 5-{5-[4-(2-Benzylamino-ethyl)-2-methoxy-phenyl]-1H-pyrazol-3-ylamino}-pyrazine-2-carbonitrile hydrochloride] | 0.19 | – | – | – | – | –
22 | COc1cc(CN2CC[C@@H](OC)C2)ccc1-c1cc(Nc2cnc(C#N)cn2)n[nH]1 [Example 125, 5-[[5-[2-methoxy-4-[[(3R)-3-methoxypyrrolidin-1-yl]methyl]phenyl]-1H-pyrazol-3-yl]amino]pyrazine-2-carbonitrile] | – | 550 | <300 | 10 | – | –

Source: US10010547B2 (CASCADIAN THERAPEUTICS, INC., priority 2014, dated 2018)
